Laboratory results as given in ChEMBL document CHEMBL6182949 (J Med Chem, 2025).
In brackets after ≈: the same amount, converted by molar mass. Activity calls are given as the source filed them. The calls are words filed in the database; no cut-off is given here.

Key:
[1] = Metabolic stability in cynomolgus monkey liver microsome assessed as half life at 1 uM measured up to 60 mins in presence of NADPH by LC-MS/MS analysis; assay type: ADME, Macaca fascicularis; conditions: liver microsomes
[2] = target: hERG (KCNH2) (Homo sapiens, UniProt Q12809); assay: Inhibition of hERG expressed in HEK293 cells at 3 uM by manual patch clamp assay relative to control; assay type: toxicity, cell-based; conditions: HEK293 cells expressing hERG
[3] = Metabolic stability mouse hepatocyte assessed as half life at 1 uM measured up to 120 mins by LC-MS/MS analysis; assay type: ADME, cell-based; conditions: hepatocytes
[4] = Permeability across basolateral to apical side in human Caco-2 cells incubated for 120 mins by LC-MS/MS analysis; assay type: ADME, cell-based; conditions: read-out: permeability
[5] = Kinetic solubility of compound in PBS buffer at pH 7.4 incubated for 2 hr by LC-MS analysis; assay type: physicochemical; conditions: read-out: Kinetic_solubility
[6] = Cmax in male C57BL/6 mouse at 2 mg/kg, iv measured up to 24 hrs by LC-MS/MS analysis; assay type: ADME, organism-based; conditions: in vivo
[7] = Volume of distribution at steady state in male C57BL/6 mouse at 2 mg/kg, iv measured up to 24 hrs by LC-MS/MS analysis; assay type: ADME, organism-based; conditions: in vivo, read-out: Vdss
[8] = Tmax in male C57BL/6 mouse at 10 mg/kg, po measured up to 24 hrs by LC-MS/MS analysis; assay type: ADME, organism-based; conditions: in vivo
[9] = Half life in Sprague-Dawley rat at 2 mg/kg, iv measured up to 24 hrs by LC-MS/MS analysis; assay type: ADME, organism-based; conditions: in vivo
[10] = Volume of distribution at steady state in Sprague-Dawley rat at 2 mg/kg, iv measured up to 24 hrs by LC-MS/MS analysis; assay type: ADME, organism-based; conditions: in vivo, read-out: Vdss
[11] = Cmax in Sprague-Dawley rat at 10 mg/kg, po measured up to 24 hrs by LC-MS/MS analysis; assay type: ADME, organism-based; conditions: in vivo
[12] = Half life in Sprague-Dawley rat at 10 mg/kg, po measured up to 24 hrs by LC-MS/MS analysis; assay type: ADME, organism-based; conditions: in vivo
[13] = Cmax in Beagle dog at 2 mg/kg, iv measured up to 24 hrs by LC-MS/MS analysis; assay type: ADME, organism-based, Canis lupus familiaris; conditions: in vivo
[14] = AUClast in Beagle dog at 2 mg/kg, iv measured up to 24 hrs by LC-MS/MS analysis; assay type: ADME, organism-based, Canis lupus familiaris; conditions: in vivo
[15] = Half life in Beagle dog at 2 mg/kg, iv measured up to 24 hrs by LC-MS/MS analysis; assay type: ADME, organism-based, Canis lupus familiaris; conditions: in vivo
[16] = Tmax in Beagle dog at 10 mg/kg, po measured up to 24 hrs by LC-MS/MS analysis; assay type: ADME, organism-based, Canis lupus familiaris; conditions: in vivo
[17] = Cmax in Beagle dog at 10 mg/kg, po measured up to 24 hrs by LC-MS/MS analysis; assay type: ADME, organism-based, Canis lupus familiaris; conditions: in vivo
[18] = AUClast in cynomolgus monkey at 1 mg/kg, iv measured up to 24 hrs by LC-MS/MS analysis; assay type: ADME, organism-based, Macaca fascicularis; conditions: in vivo
[19] = Volume of distribution at steady state in cynomolgus monkey at 1 mg/kg, iv measured up to 24 hrs by LC-MS/MS analysis; assay type: ADME, organism-based, Macaca fascicularis; conditions: in vivo, read-out: Vdss
[20] = Half life in cynomolgus monkey at 20 mg/kg, po measured up to 24 hrs by LC-MS/MS analysis; assay type: ADME, organism-based, Macaca fascicularis; conditions: in vivo
[21] = target: CYP2C19 (Homo sapiens, UniProt P33261); assay: Inhibition of CYP2C19 in human liver microsome using (S)-mephenytoin as substrate at 10 uM preincubated for 5 mins followed by NADPH addition and measured after 30 mins by LC-MS/MS analysis relative to control; assay type: ADME; conditions: human liver microsomes, probe (S)-mephenytoin, time 35 min
[22] = target: Protein cereblon/Interleukin-1 receptor-associated kinase 4 (Homo sapiens, UniProt Q9NWZ3+Q96SW2); assay: PROTAC activity at CRBN/IRAK4 in human PBMC cells assessed as induction of IRAK4 degradation incubated for 24 hrs by HiBiT lytic reagent based analysis relative to control; assay type: cell-based
[23] = target: T1, Protein cereblon/Interleukin-1 receptor-associated kinase 4 (Mus musculus, UniProt Q8C7D2+Q8R4K2); assay: PROTAC activity at CRBN/IRAK4 in mouse PBMC cells assessed as induction of IRAK4 degradation incubated for 24 hrs by HiBiT lytic reagent based analysis; assay type: cell-based
T1 sequence (Q8C7D2 whole entry): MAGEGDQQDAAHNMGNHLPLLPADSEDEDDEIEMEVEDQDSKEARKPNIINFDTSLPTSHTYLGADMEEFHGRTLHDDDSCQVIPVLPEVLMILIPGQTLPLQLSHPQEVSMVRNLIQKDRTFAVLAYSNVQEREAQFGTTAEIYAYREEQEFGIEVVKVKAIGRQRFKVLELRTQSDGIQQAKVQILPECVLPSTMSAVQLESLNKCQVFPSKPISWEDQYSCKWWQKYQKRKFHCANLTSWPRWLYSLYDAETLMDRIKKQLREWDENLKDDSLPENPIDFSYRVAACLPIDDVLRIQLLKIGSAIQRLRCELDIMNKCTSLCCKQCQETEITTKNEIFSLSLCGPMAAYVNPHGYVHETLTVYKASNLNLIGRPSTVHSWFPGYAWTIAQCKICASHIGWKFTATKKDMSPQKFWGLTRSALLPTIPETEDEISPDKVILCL
T1 sequence (Q8R4K2 whole entry): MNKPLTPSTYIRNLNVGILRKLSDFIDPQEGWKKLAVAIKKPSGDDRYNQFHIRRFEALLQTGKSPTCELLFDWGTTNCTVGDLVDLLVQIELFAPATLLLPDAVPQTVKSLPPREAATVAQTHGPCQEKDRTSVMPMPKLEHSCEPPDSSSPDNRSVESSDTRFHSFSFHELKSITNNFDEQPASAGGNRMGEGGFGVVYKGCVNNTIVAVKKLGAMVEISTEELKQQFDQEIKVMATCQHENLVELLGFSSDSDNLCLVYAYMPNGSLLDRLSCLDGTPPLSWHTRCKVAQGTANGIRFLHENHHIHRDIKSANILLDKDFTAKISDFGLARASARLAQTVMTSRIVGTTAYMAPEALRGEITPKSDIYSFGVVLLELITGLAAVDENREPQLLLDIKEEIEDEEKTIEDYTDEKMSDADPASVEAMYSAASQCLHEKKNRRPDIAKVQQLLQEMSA

[24] = target: Protein cereblon/Zinc finger protein Aiolos (Homo sapiens) (UniProt Q96SW2+Q9UKT9); assay: PROTAC activity at CRBN/IKZF3 in human PBMC cells assessed as induction of SALL4 degradation at 1 uM by Western blot analysis; assay type: cell-based
[25] = target: T2, Protein cereblon/Interleukin-1 receptor-associated kinase 4 (Mus musculus) (UniProt Q8C7D2+Q8R4K2); assay: In-vivo PROTAC activity at C57BL/6 mouse assessed as reduction in IRAK4 level in spleen at 30 mg/kg, po measured after 24 hrs by Western blot analysis; assay type: functional, organism-based; set-up: scale not given: the % may be the effect or the level left
[26] = target: T2, Protein cereblon/Interleukin-1 receptor-associated kinase 4 (Mus musculus); assay: In-vivo PROTAC activity at C57BL/6 mouse assessed as reduction in IRAK4 level in spleen at 10 mg/kg, po measured after 24 hrs by Western blot analysis; assay type: functional, organism-based; set-up: scale not given: the % may be the effect or the level left
[27] = system: Mus musculus; assay: Anti-arthritic activity against collagen-induced arthritis DBA/1 mouse model assessed as reduction in pathological score at 100 mg/kg, po administered for 14 days; assay type: functional, organism-based; conditions: time 14.0 day

Chain of CYP2C19 (P33261 whole entry): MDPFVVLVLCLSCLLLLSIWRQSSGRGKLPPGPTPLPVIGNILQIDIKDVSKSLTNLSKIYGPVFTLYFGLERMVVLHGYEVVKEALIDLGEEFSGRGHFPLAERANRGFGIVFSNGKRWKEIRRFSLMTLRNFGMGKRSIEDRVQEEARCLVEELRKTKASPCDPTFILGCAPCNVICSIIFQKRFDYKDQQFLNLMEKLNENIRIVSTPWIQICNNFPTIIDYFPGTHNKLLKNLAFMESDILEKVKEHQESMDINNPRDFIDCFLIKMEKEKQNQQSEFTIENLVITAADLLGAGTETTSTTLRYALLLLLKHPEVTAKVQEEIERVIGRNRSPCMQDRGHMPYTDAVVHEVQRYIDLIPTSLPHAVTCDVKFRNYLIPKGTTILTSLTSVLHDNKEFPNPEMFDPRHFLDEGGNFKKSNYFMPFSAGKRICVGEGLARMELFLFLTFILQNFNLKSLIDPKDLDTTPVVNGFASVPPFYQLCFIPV
Chain of hERG (KCNH2) (Q12809 whole entry): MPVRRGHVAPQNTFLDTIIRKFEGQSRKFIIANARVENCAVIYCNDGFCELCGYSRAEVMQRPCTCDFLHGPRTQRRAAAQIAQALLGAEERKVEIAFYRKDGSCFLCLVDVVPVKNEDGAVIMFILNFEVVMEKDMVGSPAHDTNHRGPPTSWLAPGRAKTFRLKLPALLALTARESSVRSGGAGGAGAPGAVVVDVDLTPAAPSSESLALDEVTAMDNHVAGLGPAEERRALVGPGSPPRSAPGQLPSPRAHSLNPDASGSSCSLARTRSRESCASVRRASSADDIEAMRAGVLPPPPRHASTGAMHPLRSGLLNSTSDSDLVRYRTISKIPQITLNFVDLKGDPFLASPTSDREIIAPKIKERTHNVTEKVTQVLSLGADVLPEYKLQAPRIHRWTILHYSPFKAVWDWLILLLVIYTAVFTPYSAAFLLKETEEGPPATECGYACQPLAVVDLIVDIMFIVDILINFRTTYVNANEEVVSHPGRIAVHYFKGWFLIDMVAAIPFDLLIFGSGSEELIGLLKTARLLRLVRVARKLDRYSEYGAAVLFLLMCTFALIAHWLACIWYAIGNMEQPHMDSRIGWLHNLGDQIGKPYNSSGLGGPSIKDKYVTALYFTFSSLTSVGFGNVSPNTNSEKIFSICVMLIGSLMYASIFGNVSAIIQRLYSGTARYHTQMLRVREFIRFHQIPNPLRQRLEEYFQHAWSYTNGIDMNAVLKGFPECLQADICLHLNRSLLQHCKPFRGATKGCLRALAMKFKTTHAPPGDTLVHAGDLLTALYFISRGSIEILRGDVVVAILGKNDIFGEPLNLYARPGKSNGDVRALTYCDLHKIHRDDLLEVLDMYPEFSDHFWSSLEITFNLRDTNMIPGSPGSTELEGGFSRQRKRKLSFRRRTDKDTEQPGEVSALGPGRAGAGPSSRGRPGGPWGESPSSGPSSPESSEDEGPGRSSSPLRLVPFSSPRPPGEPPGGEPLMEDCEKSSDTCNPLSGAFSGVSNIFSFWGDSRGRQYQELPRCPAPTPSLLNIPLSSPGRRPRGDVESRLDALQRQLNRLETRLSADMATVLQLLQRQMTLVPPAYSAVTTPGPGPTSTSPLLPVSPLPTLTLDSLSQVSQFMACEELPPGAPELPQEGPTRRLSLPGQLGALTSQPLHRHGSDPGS
Chain of Protein cereblon/Zinc finger protein Aiolos (Homo sapiens) (Q96SW2 whole entry, looked up): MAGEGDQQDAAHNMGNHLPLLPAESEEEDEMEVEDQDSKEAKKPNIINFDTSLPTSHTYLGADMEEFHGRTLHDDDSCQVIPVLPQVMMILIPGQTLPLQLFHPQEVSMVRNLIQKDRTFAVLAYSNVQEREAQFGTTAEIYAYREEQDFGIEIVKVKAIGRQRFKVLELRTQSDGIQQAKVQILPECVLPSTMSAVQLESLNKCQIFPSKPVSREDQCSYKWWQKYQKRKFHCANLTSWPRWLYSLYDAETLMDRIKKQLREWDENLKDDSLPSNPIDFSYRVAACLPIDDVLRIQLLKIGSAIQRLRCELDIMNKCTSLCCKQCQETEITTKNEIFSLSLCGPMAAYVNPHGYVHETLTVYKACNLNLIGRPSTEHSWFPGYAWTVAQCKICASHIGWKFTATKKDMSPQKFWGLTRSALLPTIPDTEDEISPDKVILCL
Chain of Protein cereblon/Zinc finger protein Aiolos (Homo sapiens) (Q9UKT9 whole entry, looked up): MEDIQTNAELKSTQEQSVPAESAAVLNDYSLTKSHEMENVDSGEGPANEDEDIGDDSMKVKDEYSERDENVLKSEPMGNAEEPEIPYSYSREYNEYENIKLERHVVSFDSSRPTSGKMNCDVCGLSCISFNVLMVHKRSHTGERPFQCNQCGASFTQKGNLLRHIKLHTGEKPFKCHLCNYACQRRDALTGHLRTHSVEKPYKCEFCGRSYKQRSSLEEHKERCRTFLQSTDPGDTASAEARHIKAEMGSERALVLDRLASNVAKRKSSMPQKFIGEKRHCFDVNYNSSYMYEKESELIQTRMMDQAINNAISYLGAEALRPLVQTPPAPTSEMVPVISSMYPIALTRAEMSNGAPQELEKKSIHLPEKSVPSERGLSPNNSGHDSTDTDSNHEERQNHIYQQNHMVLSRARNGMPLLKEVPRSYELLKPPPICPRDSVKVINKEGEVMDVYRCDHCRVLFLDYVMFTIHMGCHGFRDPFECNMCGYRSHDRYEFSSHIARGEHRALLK
Chain of Protein cereblon/Interleukin-1 receptor-associated kinase 4 (Homo sapiens, UniProt Q9NWZ3+Q96SW2) (Q96SW2 whole entry, looked up): as the sequence (Q96SW2 whole entry, looked up) above
Chain of Protein cereblon/Interleukin-1 receptor-associated kinase 4 (Homo sapiens, UniProt Q9NWZ3+Q96SW2) (Q9NWZ3 whole entry, looked up): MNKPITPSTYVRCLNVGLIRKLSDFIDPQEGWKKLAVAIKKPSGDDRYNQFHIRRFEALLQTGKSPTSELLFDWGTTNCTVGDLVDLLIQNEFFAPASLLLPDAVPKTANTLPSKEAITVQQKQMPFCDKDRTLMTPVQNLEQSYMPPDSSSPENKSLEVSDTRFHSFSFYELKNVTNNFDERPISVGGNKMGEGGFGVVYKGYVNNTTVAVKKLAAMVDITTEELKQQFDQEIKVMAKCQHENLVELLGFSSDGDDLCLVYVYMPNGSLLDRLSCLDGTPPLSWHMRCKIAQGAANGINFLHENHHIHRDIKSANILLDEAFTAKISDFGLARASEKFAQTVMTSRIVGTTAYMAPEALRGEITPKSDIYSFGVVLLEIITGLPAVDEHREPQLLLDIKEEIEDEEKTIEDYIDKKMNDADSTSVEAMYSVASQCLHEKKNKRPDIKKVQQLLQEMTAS

**Q.** For Cn1c(=O)n(C2CCC(=O)NC2=O)c2cccc(C#CCO[C@H]3CC[C@H](CN4CCC5(CC4)Cc4cc(NC(=O)c6coc7cccnc67)c(N6CCC(CO)CC6)cc4O5)CC3)c21 (some centres not stated), which half-life at 1 µM [1] is on record?
**A.** The half-life at 1 µM was 1.98 h.

**Q.** What about the inhibition at 3 µM [2] of the same molecule?
**A.** The inhibition at 3 µM was 53%.

**Q.** And the half-life at 1 µM [3]?
**A.** Its half-life at 1 µM is 3.42 h.

**Q.** What about the Papp B→A at 2 h [4] of the same molecule?
**A.** The Papp B→A at 2 h was 0.2 ×10⁻⁶ cm/s.

**Q.** And the solubility kinetic at 2 h [5]?
**A.** The solubility kinetic at 2 h was 0.97 µg/mL (≈ 1.11 µM).

**Q.** And the Cmax [6]?
**A.** The Cmax was 1870 ng/mL.

**Q.** What about the Vd [7] of the same molecule?
**A.** Its Vd is 0.88 L/kg.

**Q.** And the Tmax [8]?
**A.** Its Tmax is 2.67 h.

**Q.** What about the half-life [9] of the same molecule?
**A.** Its half-life is 4 h.

**Q.** And the Vd [10]?
**A.** Its Vd is 2.66 L/kg.

**Q.** And the Cmax [11]?
**A.** The Cmax was 613 ng/mL.

**Q.** What about the half-life [12] of the same molecule?
**A.** Its half-life is 3.43 h.

**Q.** What about the Cmax [13] of the same molecule?
**A.** The Cmax was 599 ng/mL.

**Q.** And the AUC(0-t) at 24 h [14]?
**A.** The AUC(0-t) at 24 h was 2670 ng·h/mL.

**Q.** What about the t1/2 [15] of the same molecule?
**A.** Its t1/2 is 8.1 h.

**Q.** And the Tmax [16]?
**A.** The Tmax was 4 h.

**Q.** What about the Cmax [17] of the same molecule?
**A.** Its Cmax is 360 ng/mL.

**Q.** What about the AUC(0-t) at 24 h [18] of the same molecule?
**A.** The AUC(0-t) at 24 h was 1820 ng·h/mL.

**Q.** What about the Vd [19] of the same molecule?
**A.** Its Vd is 3.85 L/kg.

**Q.** What about the half-life [20] of the same molecule?
**A.** Its half-life is 9.07 h.

**Q.** What about the inhibition at 0.5 h, 10 µM [21] of the same molecule?
**A.** The inhibition at 0.5 h, 10 µM was 45.1%.

**Q.** What about the Emax [22] of the same molecule?
**A.** Its Emax is 94%.

**Q.** And the DC50 [23]?
**A.** The DC50 was 3.57 nM.

**Q.** What about the Activity [24] of the same molecule?
**A.** The Activity was “inactive”.

**Q.** What about the Activity [25] of the same molecule?
**A.** The Activity was > 80%.

**Q.** What about the Activity [26] of the same molecule?
**A.** The Activity was 74%.

**Q.** And the Activity [27]?
**A.** The Activity was “Active”.
